By viability is commonly meant a read-out of living cells in per cent, often relative to untreated cells.

Experiment [1] relates to GES-1 human gastric mucosal epithelial cells. Kind of experiment: Ethanol induced damage model of gastric mucosal epithelial cells, cell viability. The experiment is classed as cell-based. Particulars: GES1, GES-1 cells, 7% ethanol 12 h, then compound concentration 0.5 mg/mL, 24 h. Here is the method: Chronic alcoholics are prone to gastric mucosal damage due to long-term alcohol damage.
The salts of example 51 and example 57 were taken as experimental compounds, and glycyrrhetinic acid was taken as a control compound. A blank control group (without ethanol) and a model group (with ethanol but without the salts of the examples or glycyrrhetinic acid) were set.
The cells were cultured in a complete RPMI 1640 medium for 6 h.
(§1) Then, the cell viability was detected.

Experiment [2] deals with SH-SY5Y human neuroblastoma cells. Description: Parkinson's disease cell model (6-OHDA), cell viability. It is filed as cell-based. Particulars: 24 h, read-out: Cell viability (%).
Excerpt: The salts of example 51 and examples 57 were taken as experimental compounds, and selegiline was taken as a control compound.
as §1

In experiment [1], `CC1(C)[C@@H](O)CC[C@]2(C)[C@H]3C(=O)C=C4[C@@H]5C[C@@](C)(C(=O)O)CC[C@]5(C)CC[C@@]4(C)[C@]3(C)CC[C@@H]12` [Glycyrrhetinic acid, glycyrrhetinic acid] registered a viability at 500 µg/mL of 61.8%.

Turning to `C#CCN(C)[C@H](C)Cc1ccccc1` [Selegiline, selegiline], the viability at 500 µg/mL in experiment [2] worked out at 37.5%.

For the origin of these results see patent publication US20260234153A1, “NON-COVALENT DIMER CATION OF PURINE/PYRIMIDINE AND AMINO ACID, SALT THEREOF, PREPARATION METHOD THEREFOR, AND USE THEREOF” (Suzhou Protonation Chain Biotechnology Co., Ltd, priority 2023, published 2026).
